Experimental data from patent US8952024B2, “Herbicidal pyrimidone derivatives” (E I du Pont de Nemours and Company, priority 2009, dated 2015).

Tests used:
Format in all cases: in vivo
[1] = system: umbrella sedge (Cyperus difformis); assay: Test B flooded paddy test
Outline: (§1)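 Rice, umbrella sedge, ducksalad and barnyardgrass were grown to the 2-leaf stage, flooded to 3 cm, and compound was applied directly to the paddy water, with that depth kept throughout. After 13 to 15 days in the greenhouse, plants were visually rated against controls on a 0 (no effect) to 100 (complete control) scale.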

[2] = system: barnyardgrass (Echinochloa crus-galli); assay: Test B flooded paddy test
Outline: as §1

rice (Oryza sativa) = assay: Test B flooded paddy test
Outline: as §1

[3] = system: ducksalad (Heteranthera limosa); assay: Test B flooded paddy test
Outline: as §1

[4] = system: green foxtail (Setaria viridis); assay: Test B pre-/postemergence plant response
Excerpt: (§2) Seeds of plant species selected from blackgrass (Alopecurus myosuroides), downy bromegrass (Bromus tectorum), green foxtail (Setaria viridis), Italian ryegrass (Lolium multiflorum), wheat (Triticum aestivum), wild oat (Avena fatua), deadnettle (henbit deadnettle, Lamium amplexicaule), galium (catchweed bedstraw, Galium aparine), bermudagrass (Cynodon dactylon), Surinam grass (Brachiaria decumbens), cocklebur (Xanthium strumarium), corn (Zea mays), large crabgrass (Digitaria sanguinalis), woolly cupgrass (Eriochloa villosa), giant foxtail (Setaria faberii), goosegrass (Eleusine indica), johnsongrass (Sorghum halepense), kochia (Kochia scoparia), lambsquarters (Chenopodium album), morningglory (Ipomoea coccinea), nightshade (eastern black nightshade, Solanum ptycanthum), yellow nutsedge (Cyperus esculentus), pigweed (Amaranthus retroflexus), ragweed (common ragweed, Ambrosia elatior), Russian thistle (Salsola kali), soybean (Glycine max), sunflower (common oilseed sunflower, Helianthus annuus) and velvetleaf (Abutilon theophrasti) were planted into a blend of loam soil and sand and treated preemergence with test compounds formulated in a non-phytotoxic solvent mixture which included a surfactant.
(§3) At the same time, plants selected from these crop and weed species and also winter barley (Hordeum vulgare), canarygrass (Phalaris minor), chickweed (Stellaria media) and windgrass (Apera spica-venti) were planted in pots containing Redi-Earth® planting medium (Scotts Company, 14111 Scottslawn Road, Marysville, Ohio 43041) comprising spaghnum peat moss, vermiculite, wetting agent and starter nutrients and treated with postemergence applications of some of the test chemicals formulated in the same manner. Plants ranged in height from 2 to 18 cm (1- to 4-leaf stage) for postemergence treatments.
(§4) Treated plants and controls were maintained in a greenhouse for 13 to 15 days, after which time all treated plants were visually evaluated and compared to controls. Plant response ratings, summarized in Table B, are based on a scale of 0 to 100 where 0 is no effect and 100 is complete control. A dash (-) response means no test result.

[5] = system: giant foxtail (Setaria faberii); assay: Test B pre-/postemergence plant response
Excerpt: as §2, §3, §4

corn (Zea mays) = assay: Test B pre-/postemergence plant response
Excerpt: as §2, §3, §4

[6] = system: cocklebur (Xanthium strumarium); assay: Test B pre-/postemergence plant response
Excerpt: as §2, §3, §4

[7] = system: johnsongrass (Sorghum halepense); assay: Test B pre-/postemergence plant response
Excerpt: as §2, §3, §4

[8] = system: ragweed (common ragweed, Ambrosia elatior); assay: Test B pre-/postemergence plant response
Excerpt: as §2, §3, §4

[9] = system: bermudagrass (Cynodon dactylon); assay: Test B pre-/postemergence plant response
Excerpt: as §2, §3, §4

[10] = system: lambsquarters (Chenopodium album); assay: Test B pre-/postemergence plant response
Excerpt: as §2, §3, §4

[11] = system: pigweed (Amaranthus retroflexus); assay: Test B pre-/postemergence plant response
Excerpt: as §2, §3, §4

soybean (Glycine max) = assay: Test B pre-/postemergence plant response
Excerpt: as §2, §3, §4

wild oat (Avena fatua) = assay: Test B pre-/postemergence plant response
Excerpt: as §2, §3, §4

kochia (Kochia scoparia) = assay: Test B pre-/postemergence plant response; details: Preemergence
Excerpt: as §2, §3, §4

[12] = 250 g ai/ha, flooded paddy test, visual rating on 0 to 100 scale (0 no effect, 100 complete control) after 13 to 15 days
[13] = Flood (flooded paddy test), 62 g ai/ha, scale 0 to 100, 0 is no effect, 100 is complete control, 13 to 15 days
[14] = 250 g ai/ha, Preemergence, 0 to 100 scale
[15] = Postemergence, 31 g ai/ha, scale 0 to 100 (0 no effect, 100 complete control)
[16] = Postemergence, 62 g ai/ha, scale 0 (no effect) to 100 (complete control), 13 to 15 days
[17] = Postemergence, 125 g ai/ha, visual rating after 13 to 15 days, scale 0 (no effect) to 100 (complete control)
[18] = Postemergence, 250 g ai/ha, scale 0 to 100
[19] = Preemergence, 31 g ai/ha, scale 0 to 100 (0 no effect, 100 complete control)
[20] = Preemergence, 62 g ai/ha, scale 0 to 100, 0 no effect, 100 complete control
[21] = Preemergence, 125 g ai/ha, 0 to 100 scale

Cc1ccc(C)c(-n2c(-c3ccccc3)ncc(C(=O)C3=C(O)CCCC3=O)c2=O)c1 [Compound 29]
30: Plant response rating, Flood, Barnyardgrass [2, 12] | Johnsongrass plant response rating [7, 21]
80: Plant response rating, Flood, Sedge, Umbrella [1, 12] | Plant response rating, Foxtail, Giant [5, 15] | Plant response rating, Cocklebur [6, 20] | Plant response rating, Ragweed [8, 19] | Plant response rating, Pigweed [11, 17] | Oat, Wild plant response rating (wild oat (Avena fatua); [18])
98: Cocklebur plant response rating [6, 18] | Plant response rating, Bermudagrass [9, 19] | Lambsquarters plant response rating [10, 18] | Plant response rating, Soybean (soybean (Glycine max); [17]) | Soybean plant response rating (soybean (Glycine max); [18]) | Plant response rating, Kochia (kochia (Kochia scoparia); 31 g ai/ha, scale 0 to 100 (0 no effect, 100 complete control))
75: Plant response rating, Foxtail, Green [4, 16] | Plant response rating, Foxtail, Green [4, 17]
60: Plant response rating, Foxtail, Green [4, 15] | Corn plant response rating (corn (Zea mays); [18]) | Plant response rating, Oat, Wild (wild oat (Avena fatua); [17])
95: Foxtail, Giant plant response rating [5, 18] | Plant response rating, Cocklebur [6, 16] | Plant response rating, Cocklebur [6, 17] | Plant response rating, Soybean (soybean (Glycine max); [14]) | Plant response rating, Soybean (soybean (Glycine max); [16])
50: Plant response rating, Foxtail, Giant [5, 20] | Plant response rating, Corn (corn (Zea mays); [17]) | Plant response rating, Oat, Wild (wild oat (Avena fatua); [14]) | Plant response rating, Oat, Wild (wild oat (Avena fatua); [16])
40: Plant response rating, Foxtail, Green [4, 20] | Plant response rating, Johnsongrass [7, 17]
35: Plant response rating, Corn (corn (Zea mays); [16])
85: Plant response rating, Flood, Ducksalad [3, 12] | Plant response rating, Cocklebur [6, 15] | Plant response rating, Ragweed [8, 16] | Plant response rating, Bermudagrass [9, 15] | Plant response rating, Lambsquarters [10, 16] | Pigweed plant response rating [11, 18] | Plant response rating, Soybean (soybean (Glycine max); [20])
10: Plant response rating, Foxtail, Giant [5, 19]
65: Plant response rating, Pigweed [11, 16]
0: Plant response rating, Barnyardgrass [2, 13] | Plant response rating, Flood, Rice (rice (Oryza sativa); [12]) | Plant response rating, Rice (rice (Oryza sativa); [13]) | Plant response rating, Foxtail, Green [4, 19] | Plant response rating, Corn (corn (Zea mays); [14]) | Plant response rating, Corn (corn (Zea mays); [19]) | Plant response rating, Corn (corn (Zea mays); [20]) | Corn plant response rating (corn (Zea mays); [21]) | Plant response rating, Johnsongrass [7, 19] | Plant response rating, Oat, Wild (wild oat (Avena fatua); [19]) | Plant response rating, Oat, Wild (wild oat (Avena fatua); [20])
90: Foxtail, Green plant response rating [4, 18] | Plant response rating, Foxtail, Giant [5, 16] | Plant response rating, Foxtail, Giant [5, 17] | Plant response rating, Cocklebur [6, 14] | Cocklebur plant response rating [6, 21] | Plant response rating, Johnsongrass [7, 14] | Plant response rating, Ragweed [8, 20] | Plant response rating, Bermudagrass [9, 16] | Plant response rating, Bermudagrass [9, 17] | Plant response rating, Lambsquarters [10, 17] | Soybean plant response rating (soybean (Glycine max); [21])
5: Plant response rating, Cocklebur [6, 19] | Plant response rating, Johnsongrass [7, 20]
100: Plant response rating, Foxtail, Green [4, 14] | Foxtail, Green plant response rating [4, 21] | Plant response rating, Foxtail, Giant [5, 14] | Foxtail, Giant plant response rating [5, 21] | Plant response rating, Ragweed [8, 14] | Plant response rating, Ragweed [8, 17] | Ragweed plant response rating [8, 18] | Ragweed plant response rating [8, 21] | Plant response rating, Bermudagrass [9, 14] | Bermudagrass plant response rating [9, 18] | Plant response rating, Bermudagrass [9, 20] | Bermudagrass plant response rating [9, 21] | Plant response rating, Lambsquarters [10, 14] | Plant response rating, Lambsquarters [10, 19] | Plant response rating, Lambsquarters [10, 20] | Lambsquarters plant response rating [10, 21] | Plant response rating, Pigweed [11, 14] | Plant response rating, Pigweed [11, 19] | Plant response rating, Pigweed [11, 20] | Pigweed plant response rating [11, 21] | Plant response rating, Kochia (kochia (Kochia scoparia); 250 g ai/ha, 0 to 100 scale) | Plant response rating, Kochia (kochia (Kochia scoparia); 62 g ai/ha, scale 0 to 100, 0 no effect, 100 complete control) | Kochia plant response rating (kochia (Kochia scoparia); 125 g ai/ha, 0 to 100 scale)
20: Plant response rating, Corn (corn (Zea mays); [15]) | Plant response rating, Johnsongrass [7, 16] | Plant response rating, Soybean (soybean (Glycine max); [19])
70: Plant response rating, Sedge, Umbrella [1, 13] | Plant response rating, Ducksalad [3, 13]
45: Johnsongrass plant response rating [7, 18] | Oat, Wild plant response rating (wild oat (Avena fatua); [21])
